Measurements published in patent US20230323475A1, “TEST METHOD, OF DIVIDING BLASTIC PLASMACYTOID DENDRITIC CELL NEOPLASM (BPDCN) INTO SUBTYPES” (JAPANESE FOUNDATION FOR CANCER RESEARCH, priority 2016, published 2023).

Legend:
Type in all cases: cell-based
[1] = system: BPDCN cell line CAL-1 (MYC+BPDCN); assay: Cell survival rate (Cell Titer-Glo cell growth assay), CAL-1; conditions: for survival rate of the CAL-1 cell line: CAL-1, 48 hours after addition of the BET bromodomain-selective inhibitor
Text: (§1) The cell lines used were 4 lines: BPDCN cell lines CAL-1 (MYC^+BPDCN; Non Patent Literature 11; obtained from Nagasaki University) and PMDC05 (MYC-BPDCN; Non Patent Literature 12; obtained from Niigata University), a positive control plasma cell neoplasm KMS12PE (obtained from JCRB Cell Bank) having the increased expression of MYC, and a negative control leukemia cell line K562 (obtained from JCRB Cell Bank) in which no MYC gene rearrangement was seen.
(§2) The CAL-1, PMDC05, or KMN12PE cells at 4000 cells/well or K562 at 1000 cells/well were inoculated to 96-well cell culture plates. […] The cell survival rates were measured using a cell growth assay kit using CTG reagent (Cell Titer-Glo, manufactured by Promega Corp.).
(§3) Aurora kinase inhibitors, albeit not agents directly suppressing MYC expression, were analyzed for their effects in the present invention. […] Each inhibitor was added from 1 nm to 10000 nM to the medium of the cells of each line. 48 hours later, the survival rates of these cells were analyzed (FIG. 10).
(§4) Each inhibitor was added in the concentration of 1 nM to 10000 nM to the 4 cell lines described above. The survival rates of these cells were analyzed 48 hours later (FIG. 11).

[2] = system: BPDCN cell line PMDC05 (MYC-BPDCN); assay: Cell survival rate (Cell Titer-Glo cell growth assay), PMDC05; conditions: PMDC05, 48 hours, FIG. 6
Text: as §1, §2, §3, §4

[3] = system: PARP cleavage in K562 cells; assay: Western blot for PARP cleavage after JQ1, K562; conditions: K562, JQ1 for 24 hours, FIG. 9
Text: (§5) The primary antibody used was anti-cMyc rabbit monoclonal antibody (manufactured by Abcam plc) and an anti-GAPDH mouse monoclonal antibody (manufactured by Merck Millipore) as control. The secondary antibody used was a HRP-labeled anti-rabbit IgG antibody (donkey, manufactured by Amersham Biosciences Corp.). SuperSignal West Femto Maximum Sensitivity Substrate (manufactured by Pierce/Thermo Fisher Scientific Inc.) was used for detection.
(§6) As mentioned above, it was shown that the cell growth was suppressed by the addition of the BET bromodomain-selective inhibitors to a medium. Next, analysis was conducted on a mechanism underlying the suppression of the cell growth. JQ1 was added to CAL-1, PMDC05, KMS12PE, and K562 cells. Twenty-four hours later, the cells were collected and analyzed by Western blot for MYC expression and PARP cleavage serving as an index for cell death by apoptosis. An anti-PARP antibody was obtained from Cell Signaling Technology, Inc.

[4] = system: PARP cleavage in PMDC05 cells; assay: Western blot for PARP cleavage after JQ1, PMDC05; conditions: PMDC05, JQ1 for 24 hours, FIG. 9
Text: as §5, §6

[5] = system: MYC expression in CAL-1 cells; assay: MYC expression over time by immunostaining, CAL-1; conditions: FIG. 7
Experimental: The ratios of MYC-positive cells at the time of JQ1 addition (0 hours), 6 hours later, 24 hours later, and 48 hours later were approximately 95%, 60%, 15%, and 0%, respectively. Good correlation was observed between decrease in cell survival rate and decrease in MYC expression level.

[6] = system: MYC expression and PARP cleavage in KMS12PE cells; assay: Western blot for MYC expression and PARP cleavage after JQ1, KMS12PE; conditions: 400 nM JQ1 for 24 hours, compared with untreated cells, FIG. 9
Text: as §5, §6

[7] = system: MYC expression and PARP cleavage in CAL-1 cells; assay: Western blot for MYC expression and PARP cleavage after JQ1, CAL-1; conditions: CAL-1, 400 nM JQ1 for 24 hours, compared with untreated cells, FIG. 9
Text: as §5, §6

[8] = system: negative control leukemia cell line K562; assay: Cell survival rate (Cell Titer-Glo cell growth assay), K562; conditions: 48 hours, JQ1 at 1000 nM or more, FIG. 6
Text: as §1, §2

[9] = inhibitor added at a high concentration

COc1ccccc1S(=O)(=O)Nc1ccc2c(c1)CN(C)C(=O)N2 [PFI-1]
survival rate of the CAL-1 cell line ([1]; FIG. 6): sharply decreased
survival rate of PMDC05 [2, 9]: high survival rate

Cc1sc2c(c1C)C(c1ccc(Cl)cc1)=N[C@@H](CC(=O)OC(C)(C)C)c1nnc(C)n1-2 [JQ1]
increased PARP cleavage [3]: not observed
concentration above which the survival rate of CAL-1 was rapidly decreased ([1]; CAL-1, 48 hours after addition, 6.25 nM to 6400 nM, FIG. 6): exceeded 150 nM
increased PARP cleavage [4]: not observed
ratio of MYC-positive cells ([5]; CAL-1, 400 nM JQ1, 6 hours later): ~60%
ratio of MYC-positive cells ([5]; CAL-1, 400 nM JQ1, 24 hours later): ~15%
ratio of MYC-positive cells ([5]; CAL-1, 400 nM JQ1, 48 hours later): ~0%
ratio of MYC-positive cells ([5]; CAL-1, 400 nM JQ1, at the time of JQ1 addition (0 hours)): approximately 95%
MYC expression (Western blot) [6]: markedly decreased
expression of cleaved-PARP (index for cell death by apoptosis) [6]: increased
survival rate of PMDC05 ([2]; JQ1 added at a high concentration of 1000 nM or more): high survival rate
MYC expression (Western blot) [7]: markedly decreased
expression of cleaved-PARP (index for cell death by apoptosis) [7]: increased
survival rate of K562 [8]: high survival rate

COc1cc2c(cc1-c1c(C)noc1C)ncc1[nH]c(=O)n([C@H](C)c3ccccn3)c12 [I-BET151]
survival rate of the CAL-1 cell line ([1]; FIG. 6): sharply decreased
survival rate of PMDC05 [2, 9]: high survival rate

COc1cc(Nc2ncc3c(n2)-c2ccc(Cl)cc2C(c2c(F)cccc2OC)=NC3)ccc1C(=O)O [alisertib]
growth suppressive or inhibitory effect on CAL-1 compared with PMDC05 cells ([1]; 1 nM to 10000 nM, 48 hours, FIG. 10): higher growth suppressive or inhibitory effect
growth suppression of BPDCN cell lines that exhibited MYC expression ([1]; summary statement in the description): effective

Cc1sc2c(c1C)C(c1ccc(Cl)cc1)=N[C@@H](CC(=O)Nc1ccc(O)cc1)c1nnc(C)n1-2 [OTX015]
survival rate of the CAL-1 cell line ([1]; FIG. 6): sharply decreased
survival rate of PMDC05 [2, 9]: high survival rate

Cc1sc2c(c1C)C(c1ccc(Cl)cc1)=N[C@@H](CC(N)=O)c1nnc(C)n1-2 [CPI203]
survival rate of the CAL-1 cell line ([1]; FIG. 6): sharply decreased
survival rate of PMDC05 [2, 9]: high survival rate
